± gives the expanded uncertainty stated by the source.
Experiments:
[1] = xn = mol fraction of the nth substance listed; conditions: 298.15 K, 101 kPa, Liquid
[2] = excess molar enthalpy (molar enthalpy of mixing); xn = mol fraction of the nth substance listed; conditions: 298.15 K, 101 kPa, Liquid

ClCCCl [1,2-dichloroethane] + CCCCOC(C)=O
[1]
Conditions | mass density [kg/m3]
x2 = 0.0359 | 1223.55 ± 0.58
x2 = 0.0733 | 1201.71 ± 0.56
x2 = 0.1139 | 1178.94 ± 0.55
x2 = 0.1559 | 1156.86 ± 0.53
x2 = 0.1988 | 1135.53 ± 0.53
x2 = 0.2456 | 1113.51 ± 0.52
x2 = 0.2953 | 1091.52 ± 0.52
x2 = 0.3469 | 1070.08 ± 0.52
x2 = 0.4021 | 1048.45 ± 0.52
x2 = 0.4599 | 1027.18 ± 0.53
x2 = 0.5233 | 1005.31 ± 0.54
x2 = 0.5883 | 984.3 ± 0.56
x2 = 0.6585 | 963 ± 0.59
x2 = 0.7344 | 941.52 ± 0.63
x2 = 0.8173 | 919.59 ± 0.66
x2 = 0.9013 | 898.96 ± 0.7

ClCCCCl [1,3-dichloropropane] + CCCCOC(=O)CC
[1]
Conditions | mass density [kg/m3]
x2 = 0.0407 | 1159.66 ± 0.7
x2 = 0.1229 | 1123.34 ± 0.65
x2 = 0.2119 | 1087.43 ± 0.61
x2 = 0.2612 | 1068.85 ± 0.59
x2 = 0.3653 | 1032.69 ± 0.55
x2 = 0.4229 | 1014.17 ± 0.53
x2 = 0.4801 | 996.73 ± 0.52
x2 = 0.5422 | 978.78 ± 0.52
x2 = 0.6802 | 942.1 ± 0.52
x2 = 0.7534 | 924.3 ± 0.53
x2 = 0.9139 | 888.6 ± 0.54

ClCCCCl [1,3-dichloropropane] + CCCCOC(C)=O
[1]
Conditions | mass density [kg/m3]
x2 = 0.046 | 1159.83 ± 0.71
x2 = 0.0904 | 1142.04 ± 0.7
x2 = 0.1361 | 1124.29 ± 0.69
x2 = 0.1839 | 1106.48 ± 0.68
x2 = 0.2336 | 1088.53 ± 0.67
x2 = 0.2841 | 1070.96 ± 0.66
x2 = 0.3935 | 1035.06 ± 0.65
x2 = 0.5106 | 999.49 ± 0.65
x2 = 0.6371 | 964.06 ± 0.67
x2 = 0.7043 | 946.37 ± 0.68
x2 = 0.7737 | 928.82 ± 0.7
x2 = 0.8467 | 911.1 ± 0.71
x2 = 0.923 | 893.45 ± 0.72

ClCCCCl [1,3-dichloropropane] + CCCCOC=O
Conditions | excess molar enthalpy [kcal/mol] | mass density [kg/m3]
[1], x2 = 0.0501 | – | 1161.72 ± 0.75
[1], x2 = 0.101 | – | 1144.33 ± 0.78
[1], x2 = 0.1527 | – | 1127.13 ± 0.81
[1], x2 = 0.2078 | – | 1109.19 ± 0.85
[1], x2 = 0.2601 | – | 1092.54 ± 0.89
[1], x2 = 0.3145 | – | 1075.53 ± 0.92
[1], x2 = 0.3712 | – | 1058.26 ± 0.96
[1], x2 = 0.487 | – | 1024.07 ± 1
[1], x2 = 0.6083 | – | 989.86 ± 1.1
[1], x2 = 0.6701 | – | 973.02 ± 1.2
[1], x2 = 0.7342 | – | 955.9 ± 1.2
[1], x2 = 0.7984 | – | 939.11 ± 1.3
[1], x2 = 0.8657 | – | 921.98 ± 1.3
[1], x2 = 0.9315 | – | 905.54 ± 1.4
[2], x2 = 0.046 | 0.00296 ± 0.000837 | –
[2], x2 = 0.0992 | 0.00421 ± 0.00086 | –
[2], x2 = 0.1566 | 0.00351 ± 0.00086 | –
[2], x2 = 0.2391 | 0.00153 ± 0.000789 | –
[2], x2 = 0.2953 | -0.00098 ± 0.000765 | –
[2], x2 = 0.3467 | -0.00392 ± 0.00086 | –
[2], x2 = 0.3972 | -0.00822 ± 0.001 | –
[2], x2 = 0.4442 | -0.013 ± 0.00115 | –
[2], x2 = 0.4874 | -0.0174 ± 0.00129 | –
[2], x2 = 0.5293 | -0.0205 ± 0.00139 | –
[2], x2 = 0.5696 | -0.0213 ± 0.00141 | –
[2], x2 = 0.6134 | -0.0219 ± 0.00141 | –
[2], x2 = 0.6636 | -0.0217 ± 0.00141 | –
[2], x2 = 0.7143 | -0.0213 ± 0.00141 | –
[2], x2 = 0.7798 | -0.0192 ± 0.00134 | –
[2], x2 = 0.8596 | -0.0142 ± 0.00117 | –
[2], x2 = 0.9334 | -0.00782 ± 0.00098 | –

ClCCCCCl [1,4-dichlorobutane] + CCCCOC(=O)CC
[1]
Conditions | mass density [kg/m3]
x2 = 0.0475 | 1117.36 ± 0.64
x2 = 0.0925 | 1102.34 ± 0.63
x2 = 0.1874 | 1072.01 ± 0.59
x2 = 0.239 | 1056.26 ± 0.58
x2 = 0.29 | 1041.21 ± 0.56
x2 = 0.3443 | 1025.65 ± 0.54
x2 = 0.4006 | 1010.07 ± 0.53
x2 = 0.5171 | 979.4 ± 0.52
x2 = 0.5798 | 963.71 ± 0.52
x2 = 0.6418 | 948.74 ± 0.52
x2 = 0.7075 | 933.4 ± 0.52
x2 = 0.8474 | 902.46 ± 0.53
x2 = 0.8829 | 894.96 ± 0.54
x2 = 0.9206 | 887.11 ± 0.54
x2 = 0.9575 | 879.61 ± 0.54

ClCCCCCl [1,4-dichlorobutane] + CCCCOC(C)=O
[1]
Conditions | mass density [kg/m3]
x2 = 0.0529 | 1117.81 ± 0.66
x2 = 0.1035 | 1102.8 ± 0.65
x2 = 0.1569 | 1087.25 ± 0.65
x2 = 0.2092 | 1072.35 ± 0.65
x2 = 0.2638 | 1057.04 ± 0.64
x2 = 0.3207 | 1041.46 ± 0.64
x2 = 0.3754 | 1026.74 ± 0.64
x2 = 0.4326 | 1011.67 ± 0.64
x2 = 0.4906 | 996.66 ± 0.64
x2 = 0.5505 | 981.49 ± 0.65
x2 = 0.6125 | 966.12 ± 0.66
x2 = 0.6735 | 951.29 ± 0.68
x2 = 0.7365 | 936.28 ± 0.69
x2 = 0.8011 | 921.17 ± 0.7
x2 = 0.8692 | 905.6 ± 0.71
x2 = 0.9352 | 890.8 ± 0.73

ClCCCCCl [1,4-dichlorobutane] + CCCCOC=O
Conditions | excess molar enthalpy [kcal/mol] | mass density [kg/m3]
[1], x2 = 0.0582 | – | 1119.16 ± 0.7
[1], x2 = 0.1167 | – | 1104.56 ± 0.75
[1], x2 = 0.1724 | – | 1090.7 ± 0.79
[1], x2 = 0.2316 | – | 1075.99 ± 0.84
[1], x2 = 0.286 | – | 1062.54 ± 0.88
[1], x2 = 0.345 | – | 1047.97 ± 0.92
[1], x2 = 0.4055 | – | 1033.06 ± 0.97
[1], x2 = 0.522 | – | 1004.48 ± 1.1
[1], x2 = 0.5808 | – | 990.11 ± 1.1
[1], x2 = 0.6408 | – | 975.5 ± 1.1
[1], x2 = 0.6992 | – | 961.32 ± 1.2
[1], x2 = 0.76 | – | 946.59 ± 1.2
[1], x2 = 0.8183 | – | 932.5 ± 1.3
[1], x2 = 0.8774 | – | 918.24 ± 1.3
[1], x2 = 0.9363 | – | 904.07 ± 1.4
[2], x2 = 0.049 | 0.00688 ± 0.000956 | –
[2], x2 = 0.1112 | 0.0112 ± 0.0011 | –
[2], x2 = 0.1816 | 0.0137 ± 0.00117 | –
[2], x2 = 0.2472 | 0.0151 ± 0.00122 | –
[2], x2 = 0.3099 | 0.0138 ± 0.00117 | –
[2], x2 = 0.3701 | 0.0111 ± 0.00108 | –
[2], x2 = 0.4257 | 0.00784 ± 0.00098 | –
[2], x2 = 0.4725 | 0.00366 ± 0.00086 | –
[2], x2 = 0.5121 | 7.17e-05 | –
[2], x2 = 0.5471 | -0.00237 ± 0.000813 | –
[2], x2 = 0.5819 | -0.00519 ± 0.000908 | –
[2], x2 = 0.6245 | -0.00827 ± 0.001 | –
[2], x2 = 0.6718 | -0.0104 ± 0.00108 | –
[2], x2 = 0.7351 | -0.0123 ± 0.00112 | –
[2], x2 = 0.8039 | -0.0108 ± 0.00108 | –
[2], x2 = 0.8728 | -0.00805 ± 0.001 | –
[2], x2 = 0.9412 | -0.00421 ± 0.000884 | –

ClCCCCCCl [1,5-dichloropentane] + CCCCOC(=O)CC
[1]
Conditions | mass density [kg/m3]
x2 = 0.0528 | 1081.66 ± 0.6
x2 = 0.1047 | 1068.55 ± 0.59
x2 = 0.1575 | 1055.43 ± 0.57
x2 = 0.2116 | 1042.24 ± 0.56
x2 = 0.3217 | 1016.04 ± 0.54
x2 = 0.3799 | 1002.5 ± 0.52
x2 = 0.4359 | 989.71 ± 0.52
x2 = 0.5529 | 963.57 ± 0.52
x2 = 0.6167 | 949.63 ± 0.52
x2 = 0.6773 | 936.67 ± 0.52
x2 = 0.7411 | 923.24 ± 0.53
x2 = 0.8045 | 910.15 ± 0.53
x2 = 0.8667 | 897.51 ± 0.54
x2 = 0.9333 | 884.23 ± 0.54

ClCCCCCCl [1,5-dichloropentane] + CCCCOC(C)=O
[1]
Conditions | mass density [kg/m3]
x2 = 0.0558 | 1082.62 ± 0.62
x2 = 0.1119 | 1070.12 ± 0.62
x2 = 0.1697 | 1057.27 ± 0.62
x2 = 0.2268 | 1044.6 ± 0.62
x2 = 0.3432 | 1018.88 ± 0.62
x2 = 0.4608 | 993.04 ± 0.63
x2 = 0.5786 | 967.32 ± 0.66
x2 = 0.6957 | 941.92 ± 0.68
x2 = 0.8167 | 915.81 ± 0.7
x2 = 0.8757 | 903.13 ± 0.71
x2 = 0.9364 | 890.15 ± 0.73

ClCCCCCCl [1,5-dichloropentane] + CCCCOC=O
Conditions | excess molar enthalpy [kcal/mol] | mass density [kg/m3]
[1], x2 = 0.0616 | – | 1083.81 ± 0.67
[1], x2 = 0.126 | – | 1071.76 ± 0.72
[1], x2 = 0.1909 | – | 1059.46 ± 0.77
[1], x2 = 0.2522 | – | 1047.68 ± 0.82
[1], x2 = 0.3138 | – | 1035.64 ± 0.88
[1], x2 = 0.3757 | – | 1023.39 ± 0.93
[1], x2 = 0.4364 | – | 1011.18 ± 0.98
[1], x2 = 0.4966 | – | 998.9 ± 1
[1], x2 = 0.5548 | – | 986.84 ± 1.1
[1], x2 = 0.6137 | – | 974.47 ± 1.1
[1], x2 = 0.6701 | – | 962.48 ± 1.2
[1], x2 = 0.7247 | – | 950.68 ± 1.2
[1], x2 = 0.7822 | – | 938.09 ± 1.2
[1], x2 = 0.8374 | – | 925.86 ± 1.3
[1], x2 = 0.8906 | – | 913.92 ± 1.3
[1], x2 = 0.9443 | – | 901.66 ± 1.4
[2], x2 = 0.069 | 0.0113 ± 0.0011 | –
[2], x2 = 0.1384 | 0.0179 ± 0.00129 | –
[2], x2 = 0.2122 | 0.023 ± 0.00146 | –
[2], x2 = 0.2809 | 0.025 ± 0.00151 | –
[2], x2 = 0.3459 | 0.025 ± 0.00151 | –
[2], x2 = 0.4058 | 0.0233 ± 0.00146 | –
[2], x2 = 0.4619 | 0.0205 ± 0.00139 | –
[2], x2 = 0.4922 | 0.0168 ± 0.00127 | –
[2], x2 = 0.5374 | 0.0124 ± 0.00112 | –
[2], x2 = 0.5877 | 0.0111 ± 0.00108 | –
[2], x2 = 0.6417 | 0.00825 ± 0.001 | –
[2], x2 = 0.7001 | 0.00729 ± 0.00098 | –
[2], x2 = 0.7618 | 0.00571 ± 0.000908 | –
[2], x2 = 0.8234 | 0.00366 ± 0.00086 | –
[2], x2 = 0.8876 | 0.00206 ± 0.000813 | –
[2], x2 = 0.9487 | 0.00105 ± 0.000765 | –

— the NIST ThermoML archive (doi:10.1016/j.jct.2005.11.003)
